Test results published in patent publication US20160176867A1, “MODIFIED BET-PROTEIN-INHIBITING DIHYDROQUINOXALINONES AND DIHYDROPYRIDOPYRAZINONES” (BAYER PHARMA AKTIENGESELLSCHAFT, priority 2013, published 2016).

Key:
[1] = molecular target: T1, BRD4 bromo domain 1 [BRD4(1)] (Homo sapiens, UniProt O60885); test: BRD4/acetylated peptide H4 binding assay (TR-FRET), BRD4 bromo domain 1; details: inhibition of BRD4(1)/Ac-H4 peptide interaction
T1 construct: N-terminally His6-tagged BRD4(1) (amino acids 67-152); made in house; host or cells: E. coli
Summary of the method: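 TR-FRET (665/620 nm ratio) measuring displacement of biotinylated tetra-acetylated H4 peptide from His6-BRD4(1) (aa 67-152, E. coli; typically 10 nM) at pH 7.5. Compound (11 concentrations, 0.1 nM–20 μM, duplicates) was preincubated 10 min at 22°C, then 1 h at 22°C and ≥3 h at 4°C; IC50 from 4-parameter fit normalized to DMSO and no-BRD4 controls.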

MOLM-13 cells = test: Cell proliferation assay (alamarBlue), MOLM-13; type: cell-based; details: Homo sapiens; MOLM-13 (acute myeloid leukaemia), 96 hours
Protocol: In accordance with the invention, the ability of the substances to inhibit cell proliferation was determined. Cell viability was determined by means of the alamarBlue® reagent (Invitrogen) in a Victor X3 Multilabel Reader (Perkin Elmer). The excitation wavelength was 530 nm and the emission wavelength […].
The MOLM-13 cells (DSMZ, ACC 554) were sown at a concentration of 4000 cells/well in 100 μl of growth medium (RPMI1640, 10% FCS) on 96-well microtitre plates.
After overnight incubation at 37° C., the fluorescence values were determined (CI values). Then the plates were treated with various substance dilutions (1E-5 M, 3E-6 M, 1E-6 M, 3E-7 M, 1E-7 M, 3E-8 M, 1E-8 M) and incubated at 37° C. over 96 hours (MOLM-13, B16F10, CHL-1 cells) or 120 hours (MOLP-8 cells). Subsequently, the fluorescence values were determined (CO values). For the data analysis, the CI values were subtracted from the CO values and the results were compared between cells which had been treated with various dilutions of the substance or only with buffer solution. The IC50 values (substance concentration needed for 50% inhibition of cell proliferation) were calculated therefrom.

In the case of `C[C@@H]1C(=O)N(C)c2ccc(Nc3cccc(S(=O)(=O)NC4CCN(C)CC4)c3)nc2N1C1CCNCC1` [Example 124, 3-{[(3R)-1,3-dimethyl-2-oxo-4-(piperidin-4-yl)-1,2,3,4-tetrahydropyrido[2,3-b]pyrazin-6-yl]amino}-N-(1-methylpiperidin-4-yl)benzenesulphonamide], the IC50 [1] is reported as 30 nM and the IC50 (MOLM-13 cells) is reported as > 20000 nM.

`C[C@@H]1C(=O)N(C)c2ccc(Nc3cccc(S(=O)(=O)N[C@H]4CC[C@H](N5CCN(CC6CC6)CC5)CC4)c3)nc2N1C1CCNCC1` [Example 127, N-{trans-4-[4-(cyclopropylmethyl)piperazin-1-yl]cyclohexyl}-3-{[(3R)-1,3-dimethyl-2-oxo-4-(piperidin-4-yl)-1,2,3,4-tetrahydropyrido[2,3-b]pyrazin-6-yl]amino}-benzenesulphonamide] was tested, and the IC50 [1] was 47 nM and the IC50 (MOLM-13 cells) was > 10000 nM.

With `C[C@@H]1C(=O)N(C)c2ccc(Nc3cccc(C(=O)N[C@H]4CC[C@H](N5CCN(CC6CC6)CC5)CC4)c3)nc2N1C1CCCC1` [Example 5, 3-{[(3R)-4-Cyclopentyl-1,3-dimethyl-2-oxo-1,2,3,4-tetrahydropyrido[2,3-b]pyrazin-6-yl]amino}-N-{trans-4-[4-(cyclopropylmethyl)piperazin-1-yl]cyclohexyl}benzamide] the IC50 [1] was 99 nM and the IC50 (MOLM-13 cells) was 326 nM.

`COc1ccc(S(=O)(=O)N2CCOCC2)cc1Nc1ccc2c(n1)N(C1CCN(C)CC1)[C@H](C)C(=O)N2C` [Example 25, (3R)-6-{[2-Methoxy-5-(morpholin-4-ylsulphonyl)phenyl]amino}-1,3-dimethyl-4-(1-methylpiperidin-4-yl)-3,4-dihydropyrido[2,3-b]pyrazin-2(1H)-one] gave an IC50 [1] of 16 nM and an IC50 (MOLM-13 cells) of 18 nM.

`COc1ccc(S(=O)(=O)N2CCOCC2)cc1Nc1ccc2c(n1)N(C1CCOCC1)[C@H](C)C(=O)N2C` [Example 28, (3R)-6-{[2-Methoxy-5-(morpholin-4-ylsulphonyl)phenyl]amino}-1,3-dimethyl-4-(tetrahydro-2H-pyran-4-yl)-3,4-dihydropyrido[2,3-b]pyrazin-2(1H)-one] showed an IC50 [1] of 26 nM and an IC50 (MOLM-13 cells) of 21 nM.

Compound `C[C@@H]1C(=O)N(C)c2ccc(Nc3cccc(S(=O)(=O)N4CCN(C)CC4)c3)nc2N1C1CCNCC1` [Example 125, (3R)-1,3-dimethyl-6-({3-[(4-methylpiperazin-1-yl)sulphonyl]phenyl}amino)-4-(piperidin-4-yl)-3,4-dihydropyrido[2,3-b]pyrazin-2(1H)-one] has an IC50 [1] of 37 nM and an IC50 (MOLM-13 cells) of 383 nM.

`C[C@@H]1C(=O)N(C)c2ccc(Nc3cccc(C(=O)NCCN4CCN(C)CC4)c3)nc2N1Cc1ccccc1` [Example 74, 3-{[(3R)-4-benzyl-1,3-dimethyl-2-oxo-1,2,3,4-tetrahydropyrido[2,3-b]pyrazin-6-yl]amino}-N-[2-(4-methylpiperazin-1-yl)ethyl]benzamide] was tested, and the IC50 [1] was 87 nM and the IC50 (MOLM-13 cells) was 157 nM.

With `C[C@@H]1C(=O)N(C)c2ccc(Nc3cccc(S(=O)(=O)N(C)C)c3)nc2N1C1CCNCC1` [Example 123, 3-{[(3R)-1,3-dimethyl-2-oxo-4-(piperidin-4-yl)-1,2,3,4-tetrahydropyrido[2,3-b]pyrazin-6-yl]amino}-N,N-dimethylbenzene-sulphonamide] the IC50 [1] was 18 nM and the IC50 (MOLM-13 cells) was 140 nM.

Compound `C[C@@H]1C(=O)N(C)c2ccc(Nc3cccc(C(=O)NC4CCN(C)CC4)c3)nc2N1C1CCCC1` [Example 2, 3-{[(3R)-4-Cyclopentyl-1,3-dimethyl-2-oxo-1,2,3,4-tetrahydropyrido[2,3-b]pyrazin-6-yl]amino}-N-(1-methylpiperidin-4-yl)benzamide] has an IC50 [1] of 94 nM and an IC50 (MOLM-13 cells) of 352 nM.

Compound `COCCN1c2nc(Nc3cccc(S(=O)(=O)N4CCOCC4)c3)ccc2N(C)C(=O)C1C` (racemic) [Example 49, 4-(2-methoxyethyl)-1,3-dimethyl-6-{[3-(morpholin-4-ylsulphonyl)phenyl]amino}-3,4-dihydropyrido[2,3-b]pyrazin-2(1H)-one] has an IC50 [1] of 112 nM and an IC50 (MOLM-13 cells) of 269 nM.

`C[C@@H]1C(=O)N(C)c2ccc(Nc3cccc(S(=O)(=O)NC4CCN(C)CC4)c3)nc2N1C1CCOCC1` [Example 20, 3-{[(3R)-1,3-Dimethyl-2-oxo-4-(tetrahydro-2H-pyran-4-yl)-1,2,3,4-tetrahydropyrido[2,3-b]pyrazin-6-yl]amino}-N-(1-methylpiperidin-4-yl)benzenesulphonamide] gave an IC50 [1] of 58 nM and an IC50 (MOLM-13 cells) of 175 nM.

In the case of `COCCN1c2nc(Nc3cccc(S(=O)(=O)N4CCN(C)CC4)c3)ccc2N(C)C(=O)C1C` (racemic) [Example 53, 4-(2-methoxyethyl)-1,3-dimethyl-6-({3-[(4-methylpiperazin-1-yl)sulphonyl]phenyl}-amino)-3,4-dihydropyrido-[2,3-b]pyrazin-2(1H)-one], the IC50 [1] is reported as 151 nM and the IC50 (MOLM-13 cells) is reported as 565 nM.

`C[C@@H]1C(=O)N(C)c2ccc(Nc3cccc(S(=O)(=O)N4CCN(CC(F)(F)F)CC4)c3)nc2N1C1CCNCC1` [Example 126, (3R)-1,3-dimethyl-4-(piperidin-4-yl)-6-[(3-{[4-(2,2,2-trifluoroethyl)piperazin-1-yl]sulphonyl}phenyl)amino]-3,4-dihydropyrido[2,3-b]pyrazin-2(1H)-one] gave an IC50 [1] of 38 nM and an IC50 (MOLM-13 cells) of 84 nM.

With `C[C@@H]1C(=O)N(C)c2ccc(Nc3cccc(S(=O)(=O)N4CCOCC4)c3)cc2N1C1CCOCC1` [Example 8, (3R)-1,3-Dimethyl-6-{[3-(morpholin-4-ylsulphonyl)phenyl]amino}-4-(tetrahydro-2H-pyran-4-yl)-3,4-dihydroquinoxalin-2(1H)-one] the IC50 [1] was 79 nM and the IC50 (MOLM-13 cells) was 271 nM.

`C[C@@H]1C(=O)N(C)c2ccc(Nc3cccc(C(=O)NC4CCN(C)CC4)c3)nc2N1C1CCOCC1` [Example 13, 3-{[(3R)-1,3-Dimethyl-2-oxo-4-(tetrahydro-2H-pyran-4-yl)-1,2,3,4-tetrahydropyrido[2,3-b]pyrazin-6-yl]amino}-N-(1-methylpiperidin-4-yl)benzamide] was tested, and the IC50 [1] was 322 nM and the IC50 (MOLM-13 cells) was 697 nM.

With `C[C@@H]1C(=O)N(C)c2ccc(Nc3cccc(C(=O)NC4CCN(C)CC4)c3)nc2N1Cc1ccccc1` [Example 73, 3-{[(3R)-4-benzyl-1,3-dimethyl-2-oxo-1,2,3,4-tetrahydropyrido[2,3-b]pyrazin-6-yl]amino}-N-(1-methylpiperidin-4-yl)benzamide] the IC50 [1] was 77 nM and the IC50 (MOLM-13 cells) was 110 nM.

`C[C@@H]1C(=O)N(C)c2ccc(Nc3cccc(S(=O)(=O)N4CCN(CC(F)(F)F)CC4)c3)nc2N1C1CCOCC1` [Example 37, (3R)-1,3-dimethyl-4-(tetrahydro-2H-pyran-4-yl)-6-[(3-{[4-(2,2,2-trifluoroethyl)piperazin-1-yl]sulphonyl}phenyl)-amino]-3,4-dihydropyrido-[2,3-b]pyrazin-2(1H)-one] showed an IC50 [1] of 28 nM and an IC50 (MOLM-13 cells) of 74 nM.

With `CNS(=O)(=O)c1cccc(Nc2ccc3c(n2)N(C2CCOCC2)[C@H](C)C(=O)N3C)c1` [Example 39, 3-{[(3R)-1,3-dimethyl-2-oxo-4-(tetrahydro-2H-pyran-4-yl)-1,2,3,4-tetrahydropyrido[2,3-b]pyrazin-6-yl]amino}-N-methylbenzenesulphon-amide] the IC50 [1] was 38 nM and the IC50 (MOLM-13 cells) was 90 nM.

For `CC(C)N1c2nc(Nc3cccc(S(=O)(=O)NCCN(C)C)c3)ccc2N(C)C(=O)[C@H]1C` [Example 55, N-[2-(dimethylamino)-ethyl]-3-{[(3R)-4-isopropyl-1,3-dimethyl-2-oxo-1,2,3,4-tetrahydro-pyrido[2,3-b]pyrazin-6-yl]amino}benzene-sulphonamide], the IC50 [1] was 112 nM and the IC50 (MOLM-13 cells) was 78 nM.

Work on `C[C@@H]1C(=O)N(C)c2ccc(Nc3cccc(S(=O)(=O)N4CCCC4)c3)nc2N1C1CCOCC1` [Example 27, (3R)-1,3-Dimethyl-6-{[3-(pyrrolidin-1-ylsulphonyl)phenyl]amino}-4-(tetrahydro-2H-pyran-4-yl)-3,4-dihydropyrido[2,3-b]pyrazin-2(1H)-one] yielded an IC50 [1] of 17 nM and an IC50 (MOLM-13 cells) of 41 nM.

With `C[C@@H]1C(=O)N(C)c2ccc(Nc3cccc(S(=O)(=O)N[C@H]4CC[C@H](N5CCN(CC6CC6)CC5)CC4)c3)nc2N1C1CCOCC1` [Example 35, N-{trans-4-[4-(cyclopropylmethyl)-piperazin-1-yl]cyclohexyl}-3-{[(3R)-1,3-dimethyl-2-oxo-4-(tetrahydro-2H-pyran-4-yl)-1,2,3,4-tetrahydropyrido[2,3-b]pyrazin-6-yl]amino}-benzenesulphonamide] the IC50 [1] was 26 nM and the IC50 (MOLM-13 cells) was 140 nM.

`CC(C)N1c2nc(Nc3cccc(C(=O)N4CCN(C)CC4)c3)ccc2N(C)C(=O)[C@H]1C` [Example 77, (3R)-4-isopropl-1,3-dimethyl-6-({3-[(4-methylpiperazin-1-yl)carbonyl]phenyl}-amino)-3,4-dihydro-pyrido[2,3-b]pyrazin-2(1H)-one] was tested, and the IC50 [1] was 144 nM and the IC50 (MOLM-13 cells) was 1010 nM.
